The values below come from patent US6534498B1, “Protease inhibitors” (SmithKline Beecham Corporation, priority 1999, dated 2003).

Molecules are shown by their SMILES.

The test system of assay [1] is osteoclasts (osteoclastoma-derived cell suspensions). As to the kind of experiment: Human osteoclast resorption assay (pit assay on dentine slices). The class given is cell-based. As to conditions: 48 hours, pit volumes. As to the method:
Human Osteoclast Resorption Assay
Aliquots of osteoclastoma-derived cell suspensions were removed from liquid nitrogen storage, warmed rapidly at 37° C. and washed ×1 in RPMI-1640 medium by centrifugation (1000 rpm, 5 min at 4° C.). The medium was aspirated and replaced with murine anti-HLA-DR antibody, diluted 1:3 in RPMI-1640 medium, and incubated for 30 minutes on ice. The cell suspension was mixed frequently.
The cells were washed ×2 with cold RPMI-1640 by centrifugation (1000 rpm, 5 min at 4° C.) and then transferred to a sterile 15 mL centrifuge tube. The number of mononuclear cells were enumerated in an improved Neubauer counting chamber.
Sufficient magnetic beads (5/mononuclear cell), coated with goat anti-mouse IgG, were removed from their stock bottle and placed into 5 mL of fresh medium (this washes away the toxic azide preservative). The medium was removed by immobilizing the beads on a magnet and is replaced with fresh medium.
The beads were mixed with the cells and the suspension was incubated for 30 minutes on ice. The suspension was mixed frequently. […]
The TRAP positive osteoclasts were enumerated by bright-field microscopy and were then removed from the surface of the dentine by sonication. Pit volumes were determined using the Nikon/Lasertec ILM21W confocal microscope.

For assay [2], the target named is T1, cathepsin K (Homo sapiens, UniProt P43235).
T1 sequence (P43235 115-329): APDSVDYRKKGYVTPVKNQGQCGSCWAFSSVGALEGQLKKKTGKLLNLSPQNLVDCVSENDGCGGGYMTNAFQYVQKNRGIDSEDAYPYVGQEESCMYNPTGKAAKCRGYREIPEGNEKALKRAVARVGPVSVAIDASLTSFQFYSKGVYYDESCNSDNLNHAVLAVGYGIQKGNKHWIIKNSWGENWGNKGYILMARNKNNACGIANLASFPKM
Nature of the assay: Determination of cathepsin K proteolytic catalytic activity / inhibition studies (progress curve method, Cbz-Phe-Arg-AMC). The class given is biochemical. To be noted: human recombinant enzyme, 100 mM Na acetate pH 5.5, 20 μM substrate, 10% DMSO. As to the method:
Determination of Cathepsin K Proteolytic Catalytic Activity
All assays for cathepsin K were carried out with human recombinant enzyme. Standard assay conditions for the determination of kinetic constants used a fluorogenic peptide substrate, typically Cbz-Phe-Arg-AMC, and were determined in 100 mM Na acetate at pH 5.5 containing 20 mM cysteine and 5 mM EDTA. Stock substrate solutions were prepared at concentrations of 10 or 20 mM in DMSO with 20 μM final substrate concentration in the assays. All assays contained 10% DMSO. […] All assays were conducted at ambient temperature. Product fluorescence (excitation at 360 nm; emission at 460 nm) was monitored with a Perceptive Biosystems Cytofluor II fluorescent plate reader. […]
Potential inhibitors were evaluated using the progress curve method. […] For those compounds whose progress curves were linear, apparent inhibition constants (Ki,app) were calculated according to equation 1 (Brandt et al., Biochemitsry, 1989, 28, 140): […]
[AMC]=vsst+(v0−vss)[[…]]/kobs (2) where [AMC] is the concentration of product formed over time t, v0 is the initial reaction velocity, and vss is the final steady state rate. Values for kobs were then analyzed as a linear function of inhibitor concentration to generate an apparent second order rate constant (kobs/inhibitor concentration or kobs/[I]) describing the time-dependent inhibition. […]

Consider `CC(C)C[C@H](NC(=O)c1ccc2ccccc2n1)C(=O)NC1CCCN(S(=O)(=O)c2cccc[n+]2[O-])CC1=O` (stereo partly drawn) [Example 1, Quinoline-2-carboxylic acid {(S)-3-methyl-1-[3-oxo-1-(1-oxy-pyridine-2-sulfonyl)-azepan-4-ylcarbamoyl]-butyl}amide], for which the half-maximal inhibitory concentration (IC50) in assay [1] was found to be 0.3 µM. The Ki in assay [2] stood at 0.00041 µM.

A word on the IC50: it is the concentration that gives 50% inhibition. What is called Ki is a measure of affinity in units of concentration, obtained from inhibition or displacement.
